In patent US20260002166A1, “GENETIC ENGINEERING OF MARINE BACTERIA FOR BIOMATERIAL PRODUCTION, PROBIOTIC USE IN AQUACULTURE AND MARINE ENVIRONMENTAL RESTORATION” (San Diego State University (SDSU) Foundation, dba San Diego …, priority 2022, published 2026):
Values after ≈ are worked out from the molar mass of the structure shown.

Key:
sea urchin = settings: [32]; cited from earlier work
[1] = system: Pacific and Atlantic corals; settings: synthesized TBP; cited from earlier work
phytoplankton = settings: [31]; cited from earlier work
[2] = system: two other types of invertebrate larvae; settings: two other types of invertebrate larvae [29]; cited from earlier work
[3] = system: Pseudoalteromonas sp. PS5 (NJS597, StrR); assay: Minimum inhibitory concentration of kanamycin; type: cell-based; settings: read-out: MIC Kan
Protocol: (§1) • 1. Streak out marine microbes onto Marine Agar plates and incubate overnight at 25° C.-28° C. Some strains take longer to grow to single colonies. Incubation times longer than 24 hours may be required for some slower growing strains. Monitor growth in future steps accordingly.
(§2) • 2. Inoculate a single colony into 5 mL Marine Broth (2216) media in the late afternoon/early evening. Incubate overnight at 25 C, shaking at 200 rpm.
(§3) • 3. Measure optical density (OD600) of overnight culture growth and document. • 4. Pipette 100 μL of overnight culture from each strain onto Marine Agar plates containing either Strep (for background resistance), Kan (MIC), Gent (MIC) at each concentration (25 μg/mL, 50 μg/mL, 100 μg/mL and 200 μg/mL). • 5. Use beads or plate spreader to spread the culture evenly on the plate. Remove the beads and incubate overnight at 25° C. overnight.
(§4) • 6. Observe and document growth on all concentration plates. For the MICs (Kan/Gent) identify the lowest concentration of media in which no colonies are observed. If there are no colonies at any concentration, screen lower concentrations of Kanamycin/Gentamicin in the media (i.e. 5, 10, 15, 20 μg/mL). • 7. For the Streptomycin Resistant strain, select a single colony from the highest dose of Streptomycin that has growth and streak it out onto a plate containing the same concentration and a plate containing the next highest concentration of antibiotics. Incubate overnight at 25 C.
(§5) • 8. Observe and document growth on both the MIC plates (2 days old) and the Streptomycin resistance plates. If Streptomycin resistance is sustained at less than 200 μg/mL, then continue step 7, passaging the strains onto higher concentrations of antibiotics. Once robust growth occurs at 200 μg/mL, inoculate a single colony into 5 mL Marine Broth containing Strep 200 μg/mL and incubate 25° C. overnight, shaking at 200 rpm.

Cobetia sp. MMG (NJS775) = assay: Minimum inhibitory concentration of kanamycin; type: cell-based; settings: Wild type
Protocol: as §1, §2, §3, §4, §5

[4] = system: Nereida sp. MMG025 (NJS678); assay: Minimum inhibitory concentration of kanamycin; type: cell-based; settings: Nereida sp. MMG025, Wild type
Protocol: as §1, §2, §3, §4, §5

[5] = system: Pseudoalteromonas luteoviolacea HI1 (NJS005, StrR); assay: Minimum inhibitory concentration of kanamycin; type: cell-based; settings: read-out: MIC Kan
Protocol: as §1, §2, §3, §4, §5

[6] = system: Vibrio harveyi (NJS675, StrR); assay: Minimum inhibitory concentration of kanamycin; type: cell-based; settings: read-out: MIC Kan
Protocol: as §1, §2, §3, §4, §5

Shimia sp. MMG (NJS302) = assay: Minimum inhibitory concentration of kanamycin; type: cell-based; settings: Wild type
Protocol: as §1, §2, §3, §4, §5

[7] = system: Photobacterium mandapamensis svers.3.2 (MT002); assay: Minimum inhibitory concentration of kanamycin; type: cell-based; settings: Photobacterium leiognathi, Photobacterium mandapamensis svers.3.2, Wild type
Protocol: as §1, §2, §3, §4, §5

[8] = system: Phaeobacter gallaeciensis ATCC 700781 (DSM 26640) (NJS408, Wild type); assay: Minimum inhibitory concentration of kanamycin; type: cell-based; settings: Phaeobacter gallaeciensis ATCC 700781, Wild type
Protocol: as §1, §2, §3, §4, §5

[9] = system: Ruegeria pomeroyi DSS-3 (NJS409); assay: Minimum inhibitory concentration of kanamycin; type: cell-based; settings: Ruegeria pomeroyi DSS-3, Wild type
Protocol: as §1, §2, §3, §4, §5

[10] = system: Phaeobacter sp. HS012 (NJS491); assay: Minimum inhibitory concentration of kanamycin; type: cell-based; settings: Phaeobacter sp. HS012, Wild type
Protocol: as §1, §2, §3, §4, §5

[11] = system: Endozoicomonas montiporae CL-33 (NJS662); assay: Minimum inhibitory concentration of kanamycin; type: cell-based; settings: Endozoicomonas montiporae CL-33, Wild type
Protocol: as §1, §2, §3, §4, §5

[12] = system: Leisingera sp. 204H (NJS204, Wild type); assay: Minimum inhibitory concentration of kanamycin; type: cell-based
Protocol: as §1, §2, §3, §4, §5

SMILES	Sea urchin development (sea urchin)	Induction of coral metamorphosis [1]	Phytoplankton mortality (phytoplankton)	Metamorphosis in other invertebrate larvae [2]	MIC [3]	MIC (Cobetia sp. MMG (NJS775))	MIC [4]	MIC [5]	MIC [6]	MIC (Shimia sp. MMG (NJS302))	MIC [7]	MIC [8]	MIC [9]	MIC [10]	MIC [11]	MIC [12]
Brc1[nH]c(Br)c(Br)c1Br [TBP, tetrabromopyrrole]	halts sea urchin development	induce robust metamorphosis	elicits phytoplankton mortality	not eliciting robust metamorphosis	–	–	–	–	–	–	–	–	–	–	–	–
NC[C@H]1O[C@H](O[C@H]2[C@H](O)[C@@H](O[C@H]3O[C@H](CO)[C@@H](O)[C@H](N)[C@H]3O)[C@H](N)C[C@@H]2N)[C@H](O)[C@@H](O)[C@@H]1O [Kan, kanamycin]	–	–	–	–	200 µg/mL (≈ 413 µM)	200 µg/mL (≈ 413 µM)	200 µg/mL (≈ 413 µM)	200 µg/mL (≈ 413 µM)	200 µg/mL (≈ 413 µM)	300 µg/mL (≈ 619 µM)	400 µg/mL (≈ 826 µM)	300 µg/mL (≈ 619 µM)	300 µg/mL (≈ 619 µM)	300 µg/mL (≈ 619 µM)	100 µg/mL (≈ 206 µM)	200 µg/mL (≈ 413 µM)
